Assay results as given in the Kinase Knowledgebase extract (Sharma et al. 2016).
pIC50: −log10 of the molar value.

Tests used:
PIK3CA (human) = PIK3CA (human) (UniProt P42336); experiment: Inhibition of PIK3CA Kinase Activity
PIK3CG (human) = PIK3CG (human) (UniProt P48736); experiment: Inhibition of PIK3CG Kinase Activity
PIK3CG (human), sequence (P48736 whole entry, looked up): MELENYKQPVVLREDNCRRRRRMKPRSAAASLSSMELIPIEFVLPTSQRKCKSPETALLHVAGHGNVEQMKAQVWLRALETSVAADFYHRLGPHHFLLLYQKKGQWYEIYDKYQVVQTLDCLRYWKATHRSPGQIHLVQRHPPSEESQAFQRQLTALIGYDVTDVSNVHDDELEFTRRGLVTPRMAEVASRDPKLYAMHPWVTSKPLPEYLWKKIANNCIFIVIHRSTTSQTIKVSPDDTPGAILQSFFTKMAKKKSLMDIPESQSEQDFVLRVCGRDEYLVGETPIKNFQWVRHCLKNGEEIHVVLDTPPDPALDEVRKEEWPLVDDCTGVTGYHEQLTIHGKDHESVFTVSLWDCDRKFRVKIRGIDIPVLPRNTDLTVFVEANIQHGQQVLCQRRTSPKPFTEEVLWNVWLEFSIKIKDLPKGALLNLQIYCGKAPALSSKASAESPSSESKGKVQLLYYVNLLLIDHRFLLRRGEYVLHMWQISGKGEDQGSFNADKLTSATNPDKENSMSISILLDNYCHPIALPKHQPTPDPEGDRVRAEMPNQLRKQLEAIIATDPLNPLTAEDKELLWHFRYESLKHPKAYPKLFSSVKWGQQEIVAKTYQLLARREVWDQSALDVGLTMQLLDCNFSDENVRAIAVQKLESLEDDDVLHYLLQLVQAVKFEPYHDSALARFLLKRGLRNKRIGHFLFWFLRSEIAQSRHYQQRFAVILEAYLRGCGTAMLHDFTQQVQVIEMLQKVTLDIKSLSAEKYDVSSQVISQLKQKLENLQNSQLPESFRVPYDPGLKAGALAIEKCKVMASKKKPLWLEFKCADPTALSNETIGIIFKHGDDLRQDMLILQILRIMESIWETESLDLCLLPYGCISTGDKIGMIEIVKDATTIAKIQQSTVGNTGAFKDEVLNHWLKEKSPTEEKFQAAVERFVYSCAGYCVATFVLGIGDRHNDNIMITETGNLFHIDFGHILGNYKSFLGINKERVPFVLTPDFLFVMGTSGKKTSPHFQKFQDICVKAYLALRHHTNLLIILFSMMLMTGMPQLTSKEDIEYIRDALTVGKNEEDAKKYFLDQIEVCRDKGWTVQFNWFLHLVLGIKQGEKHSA

PIK3CA (human), sequence (P42336 whole entry, looked up): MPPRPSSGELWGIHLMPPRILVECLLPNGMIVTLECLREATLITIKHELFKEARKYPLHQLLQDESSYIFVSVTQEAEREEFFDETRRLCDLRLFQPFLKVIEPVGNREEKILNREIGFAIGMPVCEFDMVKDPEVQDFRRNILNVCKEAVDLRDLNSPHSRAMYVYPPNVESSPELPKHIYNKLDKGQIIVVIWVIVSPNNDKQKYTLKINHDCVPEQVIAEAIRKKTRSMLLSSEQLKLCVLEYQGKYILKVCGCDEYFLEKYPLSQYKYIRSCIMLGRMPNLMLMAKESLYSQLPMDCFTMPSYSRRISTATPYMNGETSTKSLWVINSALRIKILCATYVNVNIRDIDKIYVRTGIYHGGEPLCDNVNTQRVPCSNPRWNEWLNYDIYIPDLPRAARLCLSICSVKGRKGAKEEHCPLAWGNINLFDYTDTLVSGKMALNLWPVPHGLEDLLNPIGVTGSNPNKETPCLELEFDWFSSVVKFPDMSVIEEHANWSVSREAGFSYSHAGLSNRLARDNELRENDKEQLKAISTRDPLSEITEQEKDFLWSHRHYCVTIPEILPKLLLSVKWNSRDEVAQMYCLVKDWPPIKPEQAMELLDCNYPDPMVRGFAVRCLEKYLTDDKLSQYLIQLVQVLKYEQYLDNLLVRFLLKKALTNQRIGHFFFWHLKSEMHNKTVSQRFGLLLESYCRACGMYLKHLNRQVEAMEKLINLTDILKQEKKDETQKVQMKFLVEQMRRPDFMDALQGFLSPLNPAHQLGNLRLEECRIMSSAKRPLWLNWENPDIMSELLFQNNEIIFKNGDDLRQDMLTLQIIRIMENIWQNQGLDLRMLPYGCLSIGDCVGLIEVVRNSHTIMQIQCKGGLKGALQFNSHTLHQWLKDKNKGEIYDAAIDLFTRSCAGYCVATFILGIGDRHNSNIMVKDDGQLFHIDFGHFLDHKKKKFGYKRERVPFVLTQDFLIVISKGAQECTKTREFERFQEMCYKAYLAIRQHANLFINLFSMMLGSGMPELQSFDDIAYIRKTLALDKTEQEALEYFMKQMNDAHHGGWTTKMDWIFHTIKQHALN

| Compound | pIC50 (PIK3CA (human)) | pIC50 (PIK3CG (human)) |
| --- | --- | --- |
| Cn1ccc2c3nc(-c4cccc(C#N)c4)nc(N4CCOCC4)c3ccc21 | 5.37 | 5.56 |
| Cn1ccc2c3nc(-c4cccc(C(N)=O)c4)nc(N4CCOCC4)c3ccc21 | 5.59 | 5.13 |
| CCCNC(=O)Nc1ccc(-c2nc(N3CCOCC3)c3ccc4c(ccn4C)c3n2)cc1 | 5.25 | 5.08 |
| Cn1ccc2c3nc(-c4ccc(C(=O)O)cc4)nc(N4CCOCC4)c3ccc21 | 4.92 | 5.01 |
| Cn1ccc2c3nc(-c4ccc(N)cc4)nc(N4CCOCC4)c3ccc21 | – | 5.00 |
| Cn1ccc2c3nc(-c4cccc5[nH]ccc45)nc(C4COCCN4)c3ccc21 (stereo not drawn) | 5.20 | 5.33 |
| CN(C)CCCNC(=O)Nc1ccc(-c2nc(N3CCOCC3)c3ccc4c(ccn4C)c3n2)cc1 | – | 5.00 |
| CN1CCN(C(=O)Nc2ccc(-c3nc(N4CCOCC4)c4ccc5c(ccn5C)c4n3)cc2)CC1 | – | 5.00 |
